Source: patent publication EP4721736A1, “PHARMACEUTICAL COMPOSITION FOR EFFECTIVELY DELAYING AND TREATING MYOPIA” (priority 2023, dated 2024)
Structures can show the parent of a compound that is named as a salt.

Tests used:
[1] = system: negative lens-induced myopia; assay: Negative lens-induced myopia (LIM) model in guinea pigs: interocular difference in refraction; details: for refraction indicators vs vehicle group: after the end of the administration period (7 days); for refraction indicators vs vehicle group / efficacy (refraction) in comparison between groups: 0.4%, 100 µL daily; for efficacy (refraction) in comparison between groups: day 3 of administration
From the text: (§1) Form-deprivation and lens-induced myopia models in guinea pigs are classic and recognized myopic animal models in the art, and may be used for evaluating efficacy and safety of myopia treatment drugs, and methods for establishing such models are well-known to those skilled in the art. For animal modeling and administration routes in the present application, reference is made to previously published scientific documents by the research group (Sen Zhang, Invest Ophthalmol Vis Sci. 2019 Jul 1; 60(8):3074-3083.; Miaozhen Pan, Exp Eye Res. 2021 Jan; 202:108332.).
After individuals with significant ocular diseases or abnormalities were eliminated from healthy 3-week-old tricolor guinea pigs (both males and females), by detecting refraction (using an infrared eccentric photorefraction device) and the eye axis (using A-scan ultrasonography), animals with refractive power between 3 diopters and 8.5 diopters (D), an interocular difference in refraction not exceeding 2 D, and both interocular differences in vitreous chamber depth and axial length not exceeding 0.05 mm were selected. These animals were randomly divided into the following 5 groups. • 1. Lens induction + vehicle control group (Control): monocular wear of a -4 D lens, with 100 µL of vehicle (DMSO:PEG300:Tween80:0.9% normal saline = 1:45:5:49) administrated to the lens-wearing eye daily for 1 week, and the number of samples = 11; • 2. Lens induction + R-alpha lipoic acid experimental group (R.ALA): monocular wear of a -4 D lens, with 100 µL of 0.4% R-alpha lipoic acid administrated to the lens-wearing eye daily for 1 week, and the number of samples = 15; • 3. Lens induction + S-alpha lipoic acid experimental group (S.ALA): monocular wear of a -4 D lens, with 100 µL of 0.4% S-alpha lipoic acid administrated to the lens-wearing eye daily for 1 week, and the number of samples = 13; • 4. Lens induction + dihydrolipoic acid experimental group (DHLA): monocular wear of a -4 D lens, with 100 µL of 0.4% dihydrolipoic acid administrated to the lens-wearing eye daily for 1 week, and the number of samples = 14; • 5.
Beginning on the day of modeling, the corresponding vehicle or drug was administrated to the experimental eye (lens-wearing eye) daily between 9:00 AM and 10:00 AM via periocular subconjunctival injection at an injection volume of 100 µL, once daily for 1 week. All procedures for negative lens-induced myopia modeling, peribulbar injection administration, detection of parameters such as refraction, and data processing for all the subjects were consistent with the schemes previously used by the research group (CN114796205B). At the beginning, on day 3, and at the end of the LIM model efficacy experiment, the refraction was detected in animal subjects. The statistical basis was the difference between the experimental eye (lens-wearing eye) and the contralateral eye of the same subject.

[2] = system: negative lens-induced myopia; assay: Choroidal thickness (OCTA) in the LIM myopia model; type: in vivo, guinea pigs; details: after the 7-day administration experiment of Example 7; vs vehicle control group
Protocol: Using the animal subjects in Example 7, choroidal parameters were detected after completion of the experiment (a few animals died during the measurement due to reasons unrelated to the test drugs, so these samples were eliminated). Specifically, choroidal thickness was measured in the LIM myopia model animals after completion of the 7-day administration experiment. Commercially available OCTA (Spectralis HRA + OCT, OCTA, Heidelberg, Germany) modified to be more suitable for animal eyeballs was used to detect the choroidal thickness. Before detection, the guinea pigs were fully anesthetized.

form-deprivation myopia [3] = assay: Form-deprivation myopia model (FDM) in guinea pigs: interocular differences in refraction and eye axis parameters
From the text: as §1
After individuals with significant eye diseases or abnormalities were eliminated from three-week-old tricolor guinea pigs, by detecting refraction (using an infrared eccentric photorefraction device) and the eye axis (using A-scan ultrasonography), animals with refractive power between 3 and 8 diopters (D), an interocular difference in refraction not exceeding 2 D, and interocular differences in vitreous chamber depth and axial length not exceeding 0.05 mm were selected. These animals were randomly divided into two groups: an FD + vehicle control group (1% DMSO + 49% PEG300 + 50% normal saline, by volume) and an FD + 0.94% lipoic acid drug treatment group. At 8:00 AM on day 1 of the experiment, form deprivation was induced in the guinea pigs using a mask method, where the right eye (experimental eye) was occluded and the left eye was left unoccluded (contralateral eye). The FD induction was maintained throughout the entire period of the lipoic acid efficacy experiment, with the hoods only briefly removed for drug administration or ocular examination (for example, refraction detection). Starting on the first day of the efficacy experiment, position of the hood was checked daily at 8:00 AM, 12:00 PM, and 7:00 PM, as well as prior to administration. Individuals with hoods fell off more than three times during the administration period were excluded. Beginning on the day of modeling, the corresponding vehicle or drug (lipoic acid formulation) was administrated to the experimental eye daily between 9:00 AM and 10:00 AM via periocular subconjunctival injection at an injection volume of 100 µL. The vehicle or drug was administrated once daily for two consecutive weeks. Interocular refraction and eye axis parameters of all subjects were measured at the start of the efficacy experiment, 1 week after administration, and after the final administration. All data collection and processing methods were the same as those previously published by the laboratory of the inventors (Pan M, Zhao F, Xie B, et al. Dietary omega-3 polyunsaturated fatty acids are protective for myopia. Proc Natl Acad Sci U S A 2021 Oct 26; 118(43):e2104689118). Statistical basis was the difference between the experimental eye and the contralateral eye in the same subject.
Utilizing the same efficacy evaluation system for myopia treatment in the guinea pig form-deprivation model as described in Example 2, the prevention and control effects of mexidol, pyridoxol, astaxanthin, and blueberry fruit extract on myopia were compared against lipoic acid. The administration route was periocular subconjunctival injection.
The same efficacy evaluation system for myopia treatment in the guinea pig form-deprivation model as described in Example 2 was utilized to evaluate the myopia treatment effects of blueberry fruit extract + lipoic acid compound formulations at different prescription ratios. The administration route was periocular subconjunctival injection.

myopia [4] = details: higher concentration of atropine; cited from earlier work
presbyopia [5] = details: cited from earlier work
form-deprivation myopia [6] = assay: Choroidal thickness (OCT) in the guinea pig form-deprivation model; type: in vivo, guinea pigs; details: Example 9; 0.5% lipoic acid choline ester eye drops, after completion of Example 6; vs negative control group
Protocol: Choroidal thickness of all animal subjects in Example 2 were detected using Spectralis HRA + OCT (Heidelberg Engineering, Heidelberg, Germany) for 30 minutes to 60 minutes after the final administration (of either the vehicle or lipoic acid).
After completion of the experiment, the choroidal thickness was detected in animals in the two control groups and the 0.5% lipoic acid choline ester eye drop administration group in Example 6 (some animals died during the measurement due to reasons unrelated to the test drugs, so the corresponding samples were eliminated).

presbyopia [7] = details: interim analysis, presbyopia treatment; cited from earlier work
myopia [8] = details: wild-type mouse myopia models; cited from earlier work
[9] = system: form-deprivation-induced myopia; details: mice with pigmentary degeneration of retina caused by a gene mutation (rd10); Landis et al. 2016; cited from earlier work

## O=C(O)CCCC[C@@H](S)CCS (racemic) [dihydrolipoic acid, Dihydrolipoic acid]
[1]
  refraction indicators vs vehicle group: extremely significant differences compared with the vehicle group
[1]; guinea pig, in vivo
  anterior chamber depth and lens thickness, FIG. 10: did not affect the anterior chamber depth and lens thickness
  ocular irritations: neither the optical isomers of lipoic acid nor dihydrolipoic acid caused ocular irritations
[2]
  choroidal thickness, experimental eye vs contralateral eye, FIG. 13: could effectively inhibit the decrease in choroidal thickness

## O=C(O)CCCC[C@@H]1CCSS1 [R-alpha lipoic acid]
[1]
  refraction indicators vs vehicle group: extremely significant differences compared with the vehicle group
  efficacy (refraction) in comparison between groups: superior to that of the dihydrolipoic acid group
[2]
  choroidal thickness, experimental eye vs contralateral eye, FIG. 13: could more significantly increase the choroidal thickness
form-deprivation myopia [3]; Example 4, end of the administration period (2 weeks), subconjunctival injection, 0.05% atropine sulfate, 0.3% R-LA, 0.37% ES, 0.3% PH, 0.87% ASTA, 6% BFE, vs control
  refraction (interocular difference), FIG. 4: significant myopia treatment effects

## O=C(O)CCCC[C@H]1CCSS1 [S-alpha lipoic acid]
[1]
  efficacy (refraction) in comparison between groups: superior to that of the dihydrolipoic acid group

## CN1[C@@H]2CC[C@H]1C[C@@H](OC(=O)C(CO)c1ccccc1)C2 (some centres unmarked) [atropine sulfate, Atropine sulfate, reference compound]
Myopia [4]
  effect upon discontinuation: rebound effect upon discontinuation
[2]
  choroidal thickness, experimental eye vs contralateral eye, FIG. 13: could effectively inhibit the decrease in choroidal thickness

## C[N+](C)(C)CCOC(=O)CCCC[C@@H]1CCSS1 [lipoic acid choline ester, R-alpha-Lipoic acid choline ester]
Presbyopia [5]; eye drops at a concentration of 1.5%
  bioavailability: good bioavailability
Presbyopia [5]; in vivo
  safety: high safety
form-deprivation myopia [6]
  thinning of the choroid (choroidal thickness), FIG. 12: could effectively inhibit thinning of the choroid
form-deprivation myopia [3]; Example 6, 0.5% LACE eye drops twice a day, 25 µL, vs vehicle
  axial elongation, FIG. 8-1 (B): significantly inhibit the axial elongation
form-deprivation myopia [3]; Example 6, LACE eye drops 0.5% and 0.15%
  dose-effect relationship of myopia treatment effect: positively related dose-effect relationship
form-deprivation myopia [3]; Example 6, direct eye drop instillation twice a day, 25 µL, 0.5% LACE, 0.05% atropine sulfate positive control, throughout the administration period, vs vehicle
  progression of negative refraction, FIG. 8-1 (A): could significantly inhibit progression of negative refraction
form-deprivation myopia [3]; guinea pig, in vivo
  anterior chamber depth, lens thickness, corneal curvature, FIG. 8-2: no statistical differences
  drug-induced mydriasis: did not observe drug-induced mydriasis
  ocular abnormalities or mydriasis: no ocular abnormalities or mydriasis were observed
Presbyopia [7]
  primary endpoint: fails to meet the primary endpoint

## O=C1O[C@H]([C@@H](O)CO)C(O)=C1O [vitamin C, ascorbic acid]
Myopia [8]
  therapeutic effects on myopia: failed to achieve therapeutic effects
[9]
  form-deprivation-induced myopia: inhibit form-deprivation-induced myopia
